What was measured:
Assay type in all cases: cell-based
wt GPR55 (Gα13) = wt GPR55 (Gα13) (Homo sapiens, UniProt Q9Y2T6); experiment: BRET² G protein dissociation assay, wt GPR55 with Gα13; settings: for ΔBRET² ratio (Mean): GPR55-wt-G13
Source text: (§1) To validate the functionality of the GPR55 cryo-EM construct, we conducted bioluminescence resonance energy transfer 2 (BRET²)-based G protein dissociation assays[46],[47] using an engineered heterotrimeric G13 protein. The N-terminal GFP fusion of the receptor was additionally modified with a G67A mutation to disrupt fluorescence properties. We employed human embryonic kidney (HEK) cells overexpressing wt or mutant GPR55 together with Gβ3, Gγ9-GFP, and Gα13 tagged with Renilla luciferase 8 (Rluc8).
(§2) G protein dissociation assays were performed according to the original protocols of the TRUPATH BRET² assay[47],[87] but with subtle modifications as previously described[61],[88],[89]. All reagents and cells were obtained from Thermo Fisher Scientific unless indicated otherwise. The coding sequences for the G protein biosensors[47] (Gα12-Rluc8, Gα13-Rluc8, wt Gβ3, and Gγ9-GFP), the wt GPR55, the construct used for cryo-EM (with GFP bearing a G67A mutation to disrupt fluorescence properties[48] for BRET² assays), GPR55 binding pocket mutants (G152^4.56F, G152^4.56W, N171^ECL2Q, N171^ECL2A, T176^5.33A, R253^6.62A), and the wt TBXA2R were codon-optimized for Homo sapiens, gene-synthesized, and sub-cloned into pcDNA^TM3.1(+) between NheI and HindIII restriction sites by GeneArt (Thermo Fisher Scientific). […] Freshly grown cells were washed with Dulbecco’s Balanced Salt Solution (DPBS, cat. #14200075) and detached using trypsin-ethylenediaminetetraacetic acid (trypsin-EDTA) (cat. #25300-062). Then, the cells were reconstituted to 500,000 cells per mL with fresh medium, and 1,000,000 cells were seeded into each well of a 6-well plate. After 3 h incubation at 37 °C and 5% CO2, adherent cells were transfected with 600 ng DNA (1:1:1:1 ratio of plasmid DNA for GPR55, wt Gβ3, Gγ9-GFP, and Gα12-Rluc8 or Gα13-Rluc8). Plasmid DNA was mixed with 1.5 µL Lipofectamine^TM 2000 (cat. #11668027) in Opti-MEM^TM medium (cat. #31985062) and incubated for 20 min. Then, the mixture was added to each well of the 6-well plate following 24 h incubation at 37 °C and 5% CO2. Transfected cells were washed with DPBS, detached using EDTA (Versene, cat. #15040066), and reconstituted into fresh medium at 500,000 cells mL^−1. From this suspension, 50,000 cells were seeded into each well of a white-bottom 96-well plate (Nunc^TM MicroWell^TM 96 wells, cat. #136101) following overnight incubation at 37 °C and 5% CO2. Then, the adherent cells were washed with assay medium [Hank’s balanced salt solution (HBSS, cat. #14065056) plus 20 mM HEPES pH 7.4 (cat. #15630056)] and finally reconstituted into 50 µL of the same medium. […] Methoxy e-Coelenterazine was used as luciferase substrate (Prolume Purple, NanoLight Technology, cat. #369), reconstituted at 1 mM in methanol and diluted to 37.5 µM with assay buffer (7.5 µM final assay concentration). The assay was started by the addition of 20 µL luciferase substrate to each well of the assay plate using a Multidrop^TM Combi reagent dispenser (Thermo Fisher Scientific), followed by 5 min incubation at room temperature. Then, 30 µL of agonist dilutions or DMSO control was added (final DMSO concentration 1.5%), followed by an additional 5 min incubation at room temperature. BRET² measurements were performed with a PHERAstar® FSX microplate reader (BMG LABTECH) using a BRET² filter (donor emission 370–450 nm, acceptor emission 500–530 nm) at the maximum fluorescence gain of 3600. BRET² ratios were calculated by dividing GFP emission signals from Rluc8 emission counts. Buffer-DMSO controls were subtracted from each data point to calculate ΔBRET² ratios.

[1] = biological target: GPR55 mutant R253A (Gα13) (Homo sapiens, UniProt Q9Y2T6, R253A); experiment: BRET² G protein dissociation assay, GPR55 R253A with Gα13
Source text: as §1, §2

[2] = biological target: GPR55 cryo-EM construct (Gα13) (Homo sapiens, UniProt Q9Y2T6); experiment: BRET² G protein dissociation assay, GPR55 cryo-EM construct (GFP G67A) with Gα13; settings: for BRET2 response, Mean (plotted, Fig. S4): Cryo-EM-G67A-G13
Source text: as §1, §2

| Mean (plotted) BRET² response, GPR55-R253A-G13 ([1]; Concentration 300 pM) | Mean (plotted) BRET² response, GPR55-R253A-G13 ([1]; Concentration 1e-9 M) | Mean (plotted) BRET² response, GPR55-R253A-G13 ([1]; Concentration 3e-9 M) | Mean (plotted) BRET² response, GPR55-R253A-G13 ([1]; Concentration 1e-8 M) | Mean (plotted) BRET² response, GPR55-R253A-G13 ([1]; Concentration 3e-8 M) | Mean (plotted) BRET² response, GPR55-R253A-G13 ([1]; Concentration 1e-7 M) | Mean (plotted) BRET² response, GPR55-R253A-G13 ([1]; Concentration 3e-7 M) | Mean (plotted) BRET² response, GPR55-R253A-G13 ([1]; Concentration 1e-6 M) | Mean (plotted) BRET² response, GPR55-R253A-G13 ([1]; Concentration 3e-6 M) | Mean (plotted) BRET² response, GPR55-R253A-G13 ([1]; Concentration 1e-5 M) | Mean (plotted) BRET² response, GPR55-R253A-G13 ([1]; Concentration 3e-5 M) | BRET2 response, Mean (plotted, Fig. S4) ([2]; concentration 300 pM) | BRET2 response, Mean (plotted, Fig. S4) ([2]; concentration 1e-9 M) | BRET2 response, Mean (plotted, Fig. S4) ([2]; concentration 3e-9 M) | BRET2 response, Mean (plotted, Fig. S4) ([2]; concentration 1e-8 M) | BRET2 response, Mean (plotted, Fig. S4) ([2]; concentration 3e-8 M) | BRET2 response, Mean (plotted, Fig. S4) ([2]; concentration 1e-7 M) | BRET2 response, Mean (plotted, Fig. S4) ([2]; concentration 3e-7 M) | BRET2 response, Mean (plotted, Fig. S4) ([2]; concentration 1e-6 M) | Compound | G protein activation at GPR55-transfected cells (in words) (wt GPR55 (Gα13); wt GPR55, Gα13) | also measured |
| --- | --- | --- | --- | --- | --- | --- | --- | --- | --- | --- | --- | --- | --- | --- | --- | --- | --- | --- | --- | --- | --- |
| -0.01108 | -0.01039 | -0.0289 | -0.05814 | -0.08149 | -0.0987 | -0.1069 | -0.1131 | -0.1166 | -0.1236 | -0.1287 | 0.0007 | -0.00467 | -0.01143 | -0.02458 | -0.03698 | -0.04541 | -0.05211 | -0.05461 | Cc1cccc(N2CCN(C(=O)c3cc(S(=O)(=O)N(C)C)ccc3N3CCCC3)CC2)c1C [ML184, 3-[[4-(2,3-dimethylphenyl)-1-piperazinyl]carbonyl]-N,N-dimethyl-4-(1-pyrrolidinyl)benzenesulfonamide] | induced Gα13 activation in a concentration-dependent manner | ΔBRET² ratio (Mean) (wt GPR55 (Gα13); 3e-10 M): -0.004943; ΔBRET² ratio (Mean) (wt GPR55 (Gα13); 1e-9 M): -0.002883; ΔBRET² ratio (Mean) (wt GPR55 (Gα13); 3e-9 M): -0.008889; ΔBRET² ratio (Mean) (wt GPR55 (Gα13); 1e-8 M): -0.01695; ΔBRET² ratio (Mean) (wt GPR55 (Gα13); 3e-8 M): -0.02473; ΔBRET² ratio (Mean) (wt GPR55 (Gα13); 1e-7 M): -0.03149; ΔBRET² ratio (Mean) (wt GPR55 (Gα13); 3e-7 M): -0.03626; ΔBRET² ratio (Mean) (wt GPR55 (Gα13); 1e-6 M): -0.04111; ΔBRET² ratio (Mean) (wt GPR55 (Gα13); 3e-6 M): -0.04451; ΔBRET² ratio (Mean) (wt GPR55 (Gα13); 1e-5 M): -0.04913; ΔBRET² ratio (Mean) (wt GPR55 (Gα13); 3e-5 M): -0.04899; Emax at 30 µM (wt GPR55 (Gα13); wt GPR55, Gα13, 30 µM ligand, 100% = wt GPR55 plus G13-biosensor at 30 µM ML184, 0% = mock plus G13-biosensor, read-out: Efficacy ± SEM (%)): 100 ± 2%; EC50 (wt GPR55 (Gα13); wt GPR55, Gα13, read-out: EC50 (Gα13 activation)): 44.7 nM; EC50 ([1]; GPR55 R253A, Gα13): 14.5 nM; increase of potency compared to wt GPR55 ([1]; R253A mutant): slightly increased by a factor of three; EC50 ([2]; Cryo-EM construct (G67A), Gα13): 18.2 nM; Emax at 30 µM ([2]; Cryo-EM construct (G67A), Gα13, 30 µM ligand, same normalization, read-out: Efficacy ± SEM (%)): 86 ± 2%; BRET2 response, Mean (plotted, Fig. S4) ([2]; concentration 3e-6 M): -0.05649; BRET2 response, Mean (plotted, Fig. S4) ([2]; concentration 1e-5 M): -0.05972; BRET2 response, Mean (plotted, Fig. S4) ([2]; concentration 3e-5 M): -0.06146 |
| -0.008328 | 0.002391 | 0.002546 | 0.001532 | 0.002853 | 0.0008838 | -0.0001645 | -0.0002602 | -0.001768 | -0.005378 | -0.00746 | 0.0002 | -7.5e-5 | 0.0017 | -0.0133 | 0.000825 | 0.0026 | 0.003275 | 0.00345 | CCCCC[C@H](O)/C=C/[C@@H]1[C@@H](C/C=C\CCCC(=O)O)[C@H]2CO[C@@H]1C2 [U-46619] | inactive | Mean (plotted) BRET² response, GPR55-R253A-G13 ([1]; Concentration 10 pM): 0.0024; Mean (plotted) BRET² response, GPR55-R253A-G13 ([1]; Concentration 30 pM): 0.00435; Mean (plotted) BRET² response, GPR55-R253A-G13 ([1]; Concentration 100 pM): 0.00475; BRET2 response, Mean (plotted, Fig. S4) ([2]; concentration 10 pM): 0.00025; BRET2 response, Mean (plotted, Fig. S4) ([2]; concentration 30 pM): -0.003725; BRET2 response, Mean (plotted, Fig. S4) ([2]; concentration 100 pM): -0.000225 |

From PMC11861906, “Structural basis for lipid-mediated activation of G protein-coupled receptor GPR55” (Nature Communications, 2025)
